# Measurements as given in patent publication US12343328B2, “Dialkyl tryptamines and their therapeutic uses” (CAAMTECH, INC., priority 2020, dated 2025).
# Test system: murine Head Twitch Response
# Assay: murine Head Twitch Response (HTR)
# Conditions: Mus musculus, read-out: HTR ED50
row,SMILES,ED50 [µmol/kg]
1,CN(C)CCc1c[nH]c2cccc(O)c12 [Psilocin],0.54
2,CN(C)CCc1c[nH]c2cccc(OP(=O)(O)O)c12 [Psilocybin],1.02
